For eleven molecules, IC50 results are on record in patent publication US20240101570A1 (AMGEN INC., priority 2020, published 2024).

For one assay, the system named is HCT116 MTAP null cells. In words: HCT116 MTAP null cell proliferation / viability (CellTiter-Glo, 6 days). As to conditions: HCT116-MTAP null, 144 h, HCT116 MTAP null cells, 6 days, CellTiter-Glo; read-out: HCT-116 MTAP null IC50. Format: cell-based. In outline: (§1)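 Viability read by CellTiter-Glo after 6-day compound exposure of MTAP-null and wild-type HCT116 cells grown in RPMI 1640 with 10% FBS. Dosing used 1:3 steps from 1 or 10 μM (8-9 points) or 1:2 steps from 10 or 50 μM (22 points); IC50 taken where fitted curve crosses 50% of control.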

The next assay concerns HCT116 WT cells. The assay can be described thus: HCT116 WT cell proliferation / viability (CellTiter-Glo, 6 days). As to conditions: Homo sapiens, HCT-116, 144 h, HCT116 WT cells, 6 days, CellTiter-Glo; read-out: HCT-116 WT IC50. Format: cell-based. Put shortly:
as §1

In the case of `CCN(Cc1ccc(Cl)cn1)C(=O)c1ccc2nc(N)c3c(c2c1)COC3` [Example 701, 4-amino-N-((5-chloro-2-pyridinyl)methyl)-N-ethyl-1,3-dihydrofuro[3,4-c]quinoline-8-carboxamide], the values for the IC50 in the assay with HCT116 MTAP null cells and in the assay on HCT116 WT cells were 193 nM and 7.25 µM, respectively.
For `CN(Cc1ccc(Cl)cn1)C(=O)c1ccc2nc(N)c3c(c2c1)COC3` [Example 702, 4-amino-N-((5-chloro-2-pyridinyl)methyl)-N-methyl-1,3-dihydrofuro[3,4-c]quinoline-8-carboxamide] the same measures were 470 nM and 4.12 µM.
The corresponding values for `CCN(Cc1ccc(C(F)(F)F)nc1)C(=O)c1ccc2nc(N)c3c(c2c1)COC3` [Example 703, 4-amino-N-ethyl-N-((6-(trifluoromethyl)-3-pyridinyl)methyl)-1,3-dihydrofuro[3,4-c]quinoline-8-carboxamide] are 337 nM and 8.15 µM.
In the case of `CCN(Cc1ccc(C(F)(F)F)nc1)C(=O)c1cc2c3c(c(N)nc2cn1)COC3` [Example 704, 4-amino-N-ethyl-N-((6-(trifluoromethyl)-3-pyridinyl)methyl)-1,3-dihydrofuro[3,4-c][1,7]naphthyridine-8-carboxamide], the IC50 in the assay with HCT116 MTAP null cells is 549 nM; in the assay on HCT116 WT cells, above 10 µM.
The corresponding values for `CCN(Cc1ccc(C(F)(F)F)cc1)C(=O)c1ccc2nc(N)c3c(c2c1)COC3` [Example 706, 4-amino-N-ethyl-N-(4-(trifluoromethyl)benzyl)-1,3-dihydrofuro[3,4-c]quinoline-8-carboxamide] are 172 nM and 3.45 µM.
The corresponding values for `CCN(Cc1ccc(C(F)(F)F)cc1)C(=O)c1cc2c3c(c(N)nc2cn1)COC3` [Example 707, 4-amino-N-ethyl-N-(4-(trifluoromethyl)benzyl)-1,3-dihydrofuro[3,4-c][1,7]naphthyridine-8-carboxamide] are 106 nM and 2.87 µM.
For `CCN(Cc1ccc(Br)nn1)C(=O)c1ccc2nc(N)c3c(c2c1)COC3` [Example 708, 4-amino-N-((6-bromo-3-pyridazinyl)methyl)-N-ethyl-1,3-dihydrofuro[3,4-c]quinoline-8-carboxamide] the same measures were 153 nM and 8.22 µM.
Take `CCN(Cc1ccc(Br)nn1)C(=O)c1cc2c3c(c(N)nc2cn1)COC3` [Example 710, 4-amino-N-((6-bromo-3-pyridazinyl)methyl)-N-ethyl-1,3-dihydrofuro[3,4-c][1,7]naphthyridine-8-carboxamide]: the results for the half-inhibitory concentration (IC50) in the assay with HCT116 MTAP null cells and in the assay with HCT116 WT cells were 484 nM and above 10 µM, respectively.
For `Cn1cc(N(Cc2ccc(C(F)(F)F)nn2)C(=O)c2cc3c4c(c(N)nc3cn2)COC4)cn1` [Example 711, 4-amino-N-(1-methyl-1H-pyrazol-4-yl)-N-((6-(trifluoromethyl)-3-pyridazinyl)methyl)-1,3-dihydrofuro[3,4-c][1,7]naphthyridine-8-carboxamide], the IC50 in the assay with HCT116 MTAP null cells turned out to be 148 nM; in the assay on HCT116 WT cells it was 4.78 µM.
For `Nc1nc2cnc(C(=O)N(Cc3ccc(C(F)(F)F)nn3)CC(F)(F)F)cc2c2c1COC2` [Example 712, 4-amino-N-(2,2,2-trifluoroethyl)-N-((6-(trifluoromethyl)-3-pyridazinyl)methyl)-1,3-dihydrofuro[3,4-c][1,7]naphthyridine-8-carboxamide] the same measures were 2000 nM and above 50 µM.
Regarding `Nc1nc2ccc(C(=O)N(Cc3ccc(C(F)(F)F)nn3)C3COC3)cc2c2c1COC2` [Example 713, 4-amino-N-(3-oxetanyl)-N-((6-(trifluoromethyl)-3-pyridazinyl)methyl)-1,3-dihydrofuro[3,4-c]quinoline-8-carboxamide], the half-maximal inhibitory concentration (IC50) with HCT116 MTAP null cells is 5110 nM; in the assay with HCT116 WT cells it was above 50 µM.
